This note sets out measurements from patent publication US20110152176A1, “AGR-MEDIATED INHIBITION AND DISPERSAL OF BIOFILMS” (priority 2008, published 2011).

Ends that are not written are not given here.

Assay [1] has as its system extracellular proteases. Kind of assay: Protease activity of AIP-I detached biofilm effluent with inhibitors or activators (Azocoll). The format is biochemical, Staphylococcus aureus. To be noted: EGTA 1 mM, PMSF 10 mM (method: 200 mM), DTT 1 mM. The protocol:
(§1) Monitoring protease activity. Milk agar plates for detection of protease activity consisted of 3 g/L Tryptic Soy broth, 20 g/L non-fat dry milk, and 15 g/L agar. To determine relative protease activities of strains, assays were performed as described previously using the Azocoll (Calbiochem) reagent (Fournier et al., 2001). For measuring protease levels in biofilm effluents, 100 mL of effluent was collected on ice (about 12 hours) after AIP addition to the biofilm medium. Cells were removed from the effluents through centrifugation and filtering, and ammonium sulfate was added to 60% over one hour at 4° C. to concentrate proteins. The precipitated proteins were pelleted by centrifugation at 19,000 rpm for 30 min, and the pellet was washed and resuspended in 1 ml with 10 mM Tris pH 7.5. For the protease assay, the reaction mixture was supplemented with either 1 mM EGTA, 200 mM PMSF, or 1 mM DTT to gauge relative levels of protease classes.
There are 10 known extracellular proteases produced by most S. aureus strains and expression of all these enzymes is controlled by the agr system (Novick, 2003; Dunman et al., 2001; Ziebandt et al., 2004). These 10 proteases include the metalloprotease aureolysin (aur), two cysteine proteases (scpA and sspB), and seven serine proteases (sspA (V8) and sp1ABCDEF) (Dubin, 2002). To elucidate what class(es) of proteases are prevalent in AIP-treated biofilms, the effluent from a detaching biofilm was assayed for protease activity in the presence of protease inhibitors or activating agents.

The subject of another assay is S. aureus SH1000 biofilm. Kind of assay: Flow cell biofilm detachment (CLSM, COMSTAT biomass, effluent CFU). The format is cell-based, Staphylococcus aureus. The note with it: for biomass detached: day 2 vs day 4. Here is the method:
(§2) Biofilm experiments. Microtiter plate biofilms were performed as described (Shanks et al., 2005) except that the plates were incubated at 37° C. with shaking at 200 rpm for 12 hours. For flow cell experiments, AIPs were generated using the DnaB intein method, and the AIP concentrations were determined as previously described (Malone et al., 2007). AIPs stocks (20 mM) were stored in 100 mM phosphate (pH 7), 50 mM NaC1, 1 mM tris(2-carboxyethyl) phosphine (TCEP) and were diluted into the biofilm flow medium to a final concentration of 50 nM. When required, […] of erythromycin and/or chloramphenicol were added to the flow cell media to maintain plasmids. The growth medium for flow cell biofilms consisted of 2% TSB plus 0.2% glucose unless otherwise indicated. Flow cell biofilm experiments and confocal microscopy were performed as previously described (Yarwood et al., 2004). Flow cells were inoculated with overnight cultures diluted 1:100 in sterile water and laminar flow ([…]) was initiated after one hour incubation. Confocal microscopy was performed using a Radiance 2100 system (Biorad) with a Nikon Eclipse E600 microscope. Confocal images were processed using Velocity software (Improvision, Lexington, Mass.). Biofilm biomass was quantified with the COMSTAT program (Heydorn et al., 2000) and percent biomass detached was calculated by subtracting biomass present at day 4 from day 2. To quantitate the number of bacteria detaching from a biofilm, 1 ml of flow cell effluent was collected on ice at indicated time points. The collected effluent was vortexed and sonicated in a water bath for 10 minutes to break up clumps, and serial dilutions were plated on TSA plates to determine colony forming units (CFUs). For the Proteinase K detachment experiments, the enzyme (Sigma-Aldrich) was suspended in water and added to the media reservoir at a final concentration of 2 mg/ml.
AIP detaches S. aureus biofilms. To investigate the role of the agr system in established biofilms, the inventors developed strategies to modulate level of agr activity within a biofilm. Initially, media supplementation experiments were performed using purified AIP signal in order to place the agr system under external control. The inventors recently developed a new method for AIP biosynthesis (Malone et al., 2007), enabling the production of sufficient signal levels for flow cell experiments. Through exogenous AIP addition, they could test wild-type strains and avoid any potential complications of constructed agr deletion mutants. For this approach, established flow cell biofilms were prepared using S. aureus SH1000 constitutively expressing RFP with plasmid pAH9. The flow cell media was supplemented with glucose to attenuate agr expression (Regassa et al., 1992), allowing cell attachment and biofilmdevelopment. After two days, either 1 mL of buffer (100 mM phosphate [pH 7], 50 mMNaCl, 1 mMTCEP; FIG. 2A) or 1 mL of […] in buffer (FIG. 2B and Video S1) was diluted 1000-fold (50 nM final concentration) into the growth media. Using the inventors' synthesized AIP-I in dose-response curves (Malone et al., 2007), the inventors estimate the amount of AIP-I in supernatants of TSB broth cultures (OD600 1.0-1.3) reaches approximately 400 nM (data not shown), indicating the 50 nM level used for the biofilm experiments is within a relevant concentration range. […] To confirm that AIP-I caused detachment, the inventors counted viable S. aureus cells in the effluent media (FIG. 2C). […] In contrast, the number of bacteria in the biofilm effluent without AIP-I addition remained relatively constant.

Assay [2] concerns S. aureus SH1000 biofilm and detached bacteria. Kind of assay: Susceptibility of biofilm and detached bacteria to rifampicin killing. The format is cell-based, Staphylococcus aureus. To be noted: six hours. The protocol:
Antibiotic sensitivity. S. aureus biofilms were grown for two days in a flow chamber lined with removable polycarbonate coupons (Flow Cell FC271, Biosurface Technologies, Bozeman Mont.). Biofilm effluents were collected on ice about 24 hours after AIP-I addition. In parallel, coupons with biofilm growth were removed from flow cells not exposed to AIP-I. Both detached bacteria and the biofilms were exposed to the indicated levels of rifampicin for six hours. Subsequently, cells were vortexed, and the coupons were sonicated in a water bath to break up the biofilm or cell clumps. Serial dilutions were plated on TSA to determine surviving CFU's.
Detached S. aureus cells regain antibiotic sensitivity. Biofilm growth of S. aureus increases resistance to antimicrobials when compared to the planktonic growth mode (Fux et al., 2004; Yarwood et al., 2004). This Biofilm-mediated resistance hinders treatment of many chronic S. aureus biofilm related infections, including endocarditis, osteomyelitis, and indwelling medical device infections (Parsek and Singh, 2003; Costerton et al., 2003). Therefore, the inventors asked whether AIP-dispersed bacteria regained sensitivity to a clinically relevant antibiotic, rifampicin. To test this, the inventors collected detached cells from an AIP-treated biofilm effluent and compared resistance to intact biofilms exposed to different levels of rifampicin. […]

For assay [3], the system named is extracellular proteases. Kind of assay: Protease activity in biofilm effluents after AIP addition (Azocoll). Format: cell-based, Staphylococcus aureus. The note with it: for protease activity in biofilm effluent relative to biofilm without AIP: wild-type SH1000 biofilm supplemented with AIP. The protocol:
as §1
If S. aureus proteases have a role in detachment, proteinase K should be able to disperse an established biofilm. […] With this preliminary observation, the inventors measured the levels of protease activity in effluents from biofilms with and without AIP-I addition using Azocoll (azo dye-impregnated collagen) reagent. […] With the addition of activating AIP-I, the protease activity increased approximately five-fold compared to a biofilm with no AIP-I treatment.

In assay [4] the test system is FRI1169 (agr Type I) biofilm. Kind of assay: Flow cell biofilm detachment, agr-I strain. The format is cell-based, Staphylococcus aureus. The note with it: 2-day old biofilm, 50 nM cognate AIP, over 48 hours. Here is the method:
as §2, with “Confocal microscopy was performed using a Radiance 2100 system (Biorad) with a Nikon Eclipse E600 microscope. Confocal images were processed using Velocity software (Improvision, Lexington, Mass.).” left out, “The collected effluent was vortexed and sonicated in a water bath for 10 minutes to break up clumps, and serial dilutions were plated on TSA plates to determine colony forming units (CFUs). For the Proteinase K detachment experiments, the enzyme (Sigma-Aldrich) was suspended in water and added to the media reservoir at a final concentration of 2 mg/ml.” left out

The next assay has as its system agr P3 promoter. Kind of assay: agr P3-GFP reporter (pDB59) expression in flow cell biofilms. Format: cell-based, Staphylococcus aureus. Here is the method:
Strains and growth conditions. The bacterial strains and plasmids used in this study are described in Table 1. S. aureus or Escherichia coli were grown in tryptic soy broth (TSB) or on tryptic soy agar (TSA) with the appropriate antibiotics for plasmid selection or maintenance (erythromycin […]; chloramphenicol 10 μg/ml; tetracycline 5 μg/ml) and incubated at 37° C. Plasmid DNA was prepared from E. coli and transformed by electroporation into S. aureus RN4220 as described (Schenk and Laddaga, 1992). Plasmids were moved from RN4220 into other S. aureus strains by transduction with bacteriophage a80 (Novick, 1991) or by purifying the plasmid DNA and transformed by electroporation into appropriate strains. To move sspA and sp1ABCDEF mutations into appropriate genetic backgrounds, phage transduction with a80 was used as described (Novick, 1991). To construct the Daur mutation, the pKOR1-aur plasmid was used as described (Kavanaugh et al., 2007). Fluorescence measurements with S. aureus strains containing pDB59 were performed as previously described (Malone et al., 2007).
(§3) Biofilm experiments. Microtiter plate biofilms were performed as described (Shanks et al., 2005) except that the plates were incubated at 37° C. with shaking at 200 rpm for 12 hours. For flow cell experiments, AIPs were generated using the DnaB intein method, and the AIP concentrations were determined as previously described (Malone et al., 2007). AIPs stocks (20 mM) were stored in 100 mM phosphate (pH 7), 50 mM NaC1, 1 mM tris(2-carboxyethyl) phosphine (TCEP) and were diluted into the biofilm flow medium to a final concentration of 50 nM. When required, […] of erythromycin and/or chloramphenicol were added to the flow cell media to maintain plasmids. […] Biofilm biomass was quantified with the COMSTAT program (Heydorn et al., 2000) and percent biomass detached was calculated by subtracting biomass present at day 4 from day 2. To quantitate the number of bacteria detaching from a biofilm, 1 ml of flow cell effluent was collected on ice at indicated time points. […]

The subject of assay [5] is SA502a (agr Type II) biofilm. Kind of assay: Flow cell biofilm detachment, agr-II strain. Format: cell-based, Staphylococcus aureus. To be noted: 2-day old biofilm, 50 nM cognate AIP, over 48 hours. The protocol:
as §3, with “plasmids. The growth medium for flow cell biofilms consisted of 2% TSB plus 0.2% glucose unless otherwise indicated. Flow cell biofilm experiments and confocal microscopy were performed as previously described (Yarwood et al., 2004). Flow cells were inoculated with overnight cultures diluted 1:100 in sterile water and laminar flow ([…]) was initiated after one hour incubation.” for “plasmids.”

The mark [6] stands for this setting: wild-type SH1000 2-day flow cell biofilm, 50 nM AIP in growth media.
The mark [7] stands for this setting: dual-labeled SH1000 (agr type I) biofilm, 50 nM AIP after two days of growth.

On to `O[C@@H](CS)[C@@H](O)CS` [DTT], for which the “effect on overall protease activity of effluent” value with extracellular proteases [1] is “did not significantly change protease activity”.
The same measure, in the same setting: the result for `O=C(O)CN(CCOCCOCCN(CC(=O)O)CC(=O)O)CC(=O)O` [EGTA] reads “negligible effect”.
`O=S(=O)(F)Cc1ccccc1` [PMSF, reference compound]: in the assay with extracellular proteases [1], the “effect on overall protease activity of effluent” value is reported as “reduced overall protease activity to almost undetectable levels”. In addition, the “effect on AIP-I mediated biofilm detachment” value in the assay on S. aureus SH1000 biofilm (10 mM PMSF in combination with AIP-I versus AIP-I alone) was “significantly reduced the level of detachment”. In the assay on S. aureus SH1000 biofilm (wild-type biofilm, 10 mM PMSF in combination with 50 nM AIP-I), the biomass detached is 48.8% (65.2).
In the case of `CO[C@H]1/C=C/O[C@@]2(C)Oc3c(C)c(O)c4c(O)c(c(/C=N/N5CCN(C)CC5)c(O)c4c3C2=O)NC(=O)/C(C)=C\C=C\[C@H](C)[C@H](O)[C@@H](C)[C@@H](O)[C@@H](C)[C@H](OC(C)=O)[C@@H]1C` [rifampicin], the “decrease of viable cells” value in assay [2] (cells detached by AIP-I, 10 mg/ml rifampicin) turned out to be 6 log. Also, the “level of rifampicin killing of the biofilm biomass” value in assay [2] (intact biofilm, 100 mg/ml rifampicin) is listed as “about 2 log units”.
Consider “AIP-I: autoinducing peptide YSTCDFIM (SEQ ID NO: 1), thiolactone bridge between C-terminal residue and internal cysteine (ester (positions not given here); not fully specified (bridges))”, for which the “protease activity in biofilm effluent” value in the assay on extracellular proteases [3] (agr mutant (SH1001) biofilm supplemented with AIP-I) is recorded as “very low levels of extracellular proteases”. Further, the “protease activity in biofilm effluent relative to biofilm without AIP” value with extracellular proteases [3] is given as “approximately five-fold”. In addition, the “biofilm detachment observed by CLSM” value in assay [4] is on record as “robust detachment”; in the assay on S. aureus SH1000 biofilm (agr deletion mutant (SH1001) biofilm, AIP-I treatment), “the mutant biofilm did not disperse”; in the assay with S. aureus SH1000 biofilm (setting [6]) it was “sloughed off the flow cell over a period of 1-2 days”. Moreover, the “concentration of bacteria in the effluent (CFU/ml)” value in the assay with S. aureus SH1000 biofilm (24-36 hours after AIP-I addition (50 nM), versus buffer) was “increased markedly”. For the same compound, the “biomass dispersed / detached” value with S. aureus SH1000 biofilm (wild-type SH1000, 50 nM AIP-I added to 2-day biofilm, within 48 hrs (day 2 vs day 4), COMSTAT) was 91.3 (64.3) %. The biomass detached is on record as 54.6% (68.1) in the assay with S. aureus SH1000 biofilm (Δaur mutant biofilm, 50 nM AIP-I) and 21.7% (66.6) in the assay on S. aureus SH1000 biofilm (Δaur Δspl double mutant biofilm, 50 nM AIP-I). The “induction of agr P3-GFP reporter” value with agr P3 promoter (agr deletion mutant (SH1001) biofilm with dual reporters, AIP-I) is given as “lack of GFP induction”; in the assay on agr P3 promoter (setting [7]) it was “strong induction of the GFP reporter”.
In the case of “AIP-II: autoinducing peptide GVNACSSLF (SEQ ID NO: 2), thiolactone bridge between C-terminal residue and internal cysteine (ester (positions not given here); not fully specified (bridges))”, the “protease activity in biofilm effluent relative to biofilm without AIP” value in the assay with extracellular proteases [3] is given as “reduced the level of proteolytic activity”. Moreover, the figures for the “biofilm detachment observed by CLSM” value (in assay [5]; with S. aureus SH1000 biofilm (setting [6])) were “robust detachment” and “the biofilm did not disperse”, respectively. For the same compound, the “induction of agr P3-GFP reporter” value with agr P3 promoter (setting [7]) is on record as “failed to induce GFP expression”.
